Results: patent US11746087B1, “C4-carboxylic acid-substituted tryptamine derivatives and methods of using” (priority 2022, dated 2023)
pEC50, pIC50: −log10 of the molar value.

Tests used:
5-HT1A receptor = target: T1, 5-HT1A receptor (Homo sapiens, UniProt P08908); assay: cAMP-Glo assay in +5-HT1A vs −5-HT1A CHO-K1 cells; assay type: cell-based; settings: cAMP assay with 4 mM forskolin
T1 construct: host or cells: CHO-K1 (co-expressing Ga15)
T1 sequence (P08908 1-422): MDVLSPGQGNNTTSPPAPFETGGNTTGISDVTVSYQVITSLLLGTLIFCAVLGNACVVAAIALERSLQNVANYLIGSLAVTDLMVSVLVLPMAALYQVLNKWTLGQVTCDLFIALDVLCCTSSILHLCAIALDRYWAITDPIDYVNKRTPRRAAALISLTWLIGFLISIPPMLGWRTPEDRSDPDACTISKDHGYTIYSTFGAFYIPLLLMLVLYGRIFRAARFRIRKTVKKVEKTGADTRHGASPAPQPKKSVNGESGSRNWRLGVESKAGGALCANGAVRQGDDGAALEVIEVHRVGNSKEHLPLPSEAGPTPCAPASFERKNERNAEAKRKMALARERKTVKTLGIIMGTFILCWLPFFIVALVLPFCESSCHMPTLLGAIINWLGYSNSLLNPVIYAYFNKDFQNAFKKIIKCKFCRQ

ADRA1A = target: T2, ADRA1A (Homo sapiens, UniProt P35348); assay: Calcium secondary messenger assay, agonist mode; assay type: cell-based
T2 sequence (P35348 1-466): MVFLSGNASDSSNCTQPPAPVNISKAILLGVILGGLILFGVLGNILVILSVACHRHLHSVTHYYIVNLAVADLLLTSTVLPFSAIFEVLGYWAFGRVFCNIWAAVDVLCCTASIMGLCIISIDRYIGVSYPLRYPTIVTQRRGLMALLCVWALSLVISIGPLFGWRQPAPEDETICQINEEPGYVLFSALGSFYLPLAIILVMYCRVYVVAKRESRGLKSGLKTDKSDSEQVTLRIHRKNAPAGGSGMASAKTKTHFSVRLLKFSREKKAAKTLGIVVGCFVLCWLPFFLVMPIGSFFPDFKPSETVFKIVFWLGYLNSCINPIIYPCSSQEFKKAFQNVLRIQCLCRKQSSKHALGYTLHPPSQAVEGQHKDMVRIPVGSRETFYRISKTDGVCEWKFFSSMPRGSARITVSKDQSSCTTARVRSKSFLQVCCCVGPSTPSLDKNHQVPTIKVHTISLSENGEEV

ADRA2A = target: T3, ADRA2A (Homo sapiens, UniProt P08913); assay: EFC-based cAMP secondary messenger assay, agonist mode; assay type: cell-based
T3 sequence (P08913 1-465): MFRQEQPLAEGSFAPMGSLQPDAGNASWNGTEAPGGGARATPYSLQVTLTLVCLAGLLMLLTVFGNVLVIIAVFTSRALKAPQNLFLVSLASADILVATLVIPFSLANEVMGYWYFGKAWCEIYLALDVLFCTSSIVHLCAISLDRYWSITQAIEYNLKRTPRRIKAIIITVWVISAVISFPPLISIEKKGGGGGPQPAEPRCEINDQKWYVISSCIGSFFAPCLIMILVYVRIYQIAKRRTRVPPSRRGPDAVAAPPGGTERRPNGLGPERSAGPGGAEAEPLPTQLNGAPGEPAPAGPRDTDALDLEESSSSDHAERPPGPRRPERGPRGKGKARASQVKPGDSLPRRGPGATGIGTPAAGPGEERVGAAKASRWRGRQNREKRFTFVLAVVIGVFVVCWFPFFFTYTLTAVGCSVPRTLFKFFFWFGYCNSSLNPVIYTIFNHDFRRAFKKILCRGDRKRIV

AVPR1A [1] = target: T4, AVPR1A (Homo sapiens, UniProt P37288); assay: Calcium secondary messenger assay, agonist mode; assay type: cell-based
T4 sequence (P37288 whole entry): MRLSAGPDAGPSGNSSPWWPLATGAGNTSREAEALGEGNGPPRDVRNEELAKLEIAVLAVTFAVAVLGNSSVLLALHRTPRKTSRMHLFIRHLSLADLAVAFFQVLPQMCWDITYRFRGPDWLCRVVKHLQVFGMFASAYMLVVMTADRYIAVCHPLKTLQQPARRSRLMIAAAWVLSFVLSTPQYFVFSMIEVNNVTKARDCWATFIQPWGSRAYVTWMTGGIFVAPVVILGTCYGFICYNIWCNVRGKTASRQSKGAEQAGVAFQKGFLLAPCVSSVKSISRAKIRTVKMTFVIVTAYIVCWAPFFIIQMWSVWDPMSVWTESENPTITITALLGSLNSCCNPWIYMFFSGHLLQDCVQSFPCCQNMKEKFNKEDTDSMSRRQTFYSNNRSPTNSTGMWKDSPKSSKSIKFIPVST

AVPR1A [2] = target: T4, AVPR1A; assay: Calcium secondary messenger assay, antagonist mode; assay type: cell-based
DRD1 = DRD1 (Homo sapiens, UniProt P21728); assay: EFC-based cAMP secondary messenger assay, agonist mode; assay type: cell-based
DRD1, sequence (P21728 whole entry): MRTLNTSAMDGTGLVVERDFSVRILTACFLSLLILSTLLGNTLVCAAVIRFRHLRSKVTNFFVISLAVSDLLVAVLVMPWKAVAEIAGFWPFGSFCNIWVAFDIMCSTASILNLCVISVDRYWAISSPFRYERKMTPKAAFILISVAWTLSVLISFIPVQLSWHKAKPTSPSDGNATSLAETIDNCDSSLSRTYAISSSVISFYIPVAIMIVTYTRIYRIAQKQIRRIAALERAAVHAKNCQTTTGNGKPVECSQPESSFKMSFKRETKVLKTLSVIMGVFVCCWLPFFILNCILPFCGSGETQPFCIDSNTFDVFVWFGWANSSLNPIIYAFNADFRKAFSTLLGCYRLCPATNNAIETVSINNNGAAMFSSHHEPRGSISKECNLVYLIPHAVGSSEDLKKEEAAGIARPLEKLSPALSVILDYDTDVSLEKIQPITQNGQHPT

HTR1A (5-HT1A) = target: T5, HTR1A (5-HT1A) (Homo sapiens, UniProt P08908); assay: EFC-based cAMP secondary messenger assay, antagonist mode; assay type: cell-based
T5 sequence (P08908 1-422): T1 sequence (P08908 1-422)

OPRD1 = OPRD1 (Homo sapiens, UniProt P41143); assay: as above; assay type: cell-based
OPRD1, sequence (P41143 whole entry): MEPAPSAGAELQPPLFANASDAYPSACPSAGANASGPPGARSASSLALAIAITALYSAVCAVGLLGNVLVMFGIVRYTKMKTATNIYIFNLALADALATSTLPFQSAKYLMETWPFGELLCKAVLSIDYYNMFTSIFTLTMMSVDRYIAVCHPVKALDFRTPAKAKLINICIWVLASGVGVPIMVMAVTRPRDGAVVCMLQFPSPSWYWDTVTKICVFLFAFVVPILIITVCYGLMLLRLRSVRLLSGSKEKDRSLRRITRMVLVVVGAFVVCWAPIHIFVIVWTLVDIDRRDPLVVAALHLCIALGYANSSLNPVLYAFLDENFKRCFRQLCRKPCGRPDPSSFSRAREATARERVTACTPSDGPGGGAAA

HTR3A (5-HT3A) = target: T6, HTR3A (5-HT3A) (Homo sapiens, UniProt P46098); assay: Ion channel assay (FLIPR membrane potential), blocker; assay type: cell-based
T6 sequence (P46098 24-478): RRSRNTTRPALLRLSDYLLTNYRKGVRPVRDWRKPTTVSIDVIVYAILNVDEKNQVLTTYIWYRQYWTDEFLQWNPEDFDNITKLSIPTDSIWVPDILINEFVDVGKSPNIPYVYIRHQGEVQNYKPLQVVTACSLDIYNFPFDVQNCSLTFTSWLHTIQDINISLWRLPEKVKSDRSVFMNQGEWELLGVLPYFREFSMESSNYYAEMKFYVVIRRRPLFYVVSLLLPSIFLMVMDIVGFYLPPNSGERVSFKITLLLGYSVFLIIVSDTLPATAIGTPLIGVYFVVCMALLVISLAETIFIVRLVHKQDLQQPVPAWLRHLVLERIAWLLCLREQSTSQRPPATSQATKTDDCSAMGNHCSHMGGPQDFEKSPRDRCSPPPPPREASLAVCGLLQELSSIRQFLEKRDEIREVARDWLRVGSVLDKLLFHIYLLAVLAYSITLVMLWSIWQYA

MAO-A = target: T7, MAO-A (Homo sapiens, UniProt P21397); assay: MAO-A enzyme assay (kynuramine); assay type: biochemical
T7 construct: purchased Sigma
T7 sequence (P21397 1-527): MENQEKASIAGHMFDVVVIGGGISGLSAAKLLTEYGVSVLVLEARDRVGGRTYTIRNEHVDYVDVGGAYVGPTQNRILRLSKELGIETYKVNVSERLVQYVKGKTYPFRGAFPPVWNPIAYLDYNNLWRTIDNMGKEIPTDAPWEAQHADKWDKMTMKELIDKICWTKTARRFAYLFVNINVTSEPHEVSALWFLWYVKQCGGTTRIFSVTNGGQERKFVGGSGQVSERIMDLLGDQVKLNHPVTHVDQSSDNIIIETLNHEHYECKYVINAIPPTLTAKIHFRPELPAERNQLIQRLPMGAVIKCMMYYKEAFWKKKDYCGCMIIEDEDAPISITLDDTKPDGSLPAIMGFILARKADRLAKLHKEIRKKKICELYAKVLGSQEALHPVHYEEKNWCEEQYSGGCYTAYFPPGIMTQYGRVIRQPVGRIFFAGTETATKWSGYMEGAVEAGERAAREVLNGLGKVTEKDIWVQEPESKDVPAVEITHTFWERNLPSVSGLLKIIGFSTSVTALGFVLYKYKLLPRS

DAT = DAT (Homo sapiens, UniProt Q01959); assay: Neurotransmitter transporter uptake assay, blocker; assay type: cell-based
DAT, sequence (Q01959 whole entry): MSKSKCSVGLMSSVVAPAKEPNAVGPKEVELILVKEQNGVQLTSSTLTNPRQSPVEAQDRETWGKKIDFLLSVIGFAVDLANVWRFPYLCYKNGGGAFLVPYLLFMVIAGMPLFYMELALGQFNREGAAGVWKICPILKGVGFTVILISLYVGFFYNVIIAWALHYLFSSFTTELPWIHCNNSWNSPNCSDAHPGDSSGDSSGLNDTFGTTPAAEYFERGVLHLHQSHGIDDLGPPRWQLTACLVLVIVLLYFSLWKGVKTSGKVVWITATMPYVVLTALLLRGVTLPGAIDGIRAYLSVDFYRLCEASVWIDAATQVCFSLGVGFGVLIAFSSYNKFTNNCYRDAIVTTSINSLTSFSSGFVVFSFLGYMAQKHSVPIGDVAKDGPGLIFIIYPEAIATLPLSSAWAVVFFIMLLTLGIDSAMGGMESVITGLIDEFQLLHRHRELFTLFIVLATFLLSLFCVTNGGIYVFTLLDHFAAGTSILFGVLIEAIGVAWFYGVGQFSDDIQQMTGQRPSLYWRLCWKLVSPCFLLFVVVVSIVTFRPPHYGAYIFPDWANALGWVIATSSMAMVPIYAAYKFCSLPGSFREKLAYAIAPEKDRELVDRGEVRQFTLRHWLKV

NET = NET (Homo sapiens, UniProt P23975); assay: Neurotransmitter transporter uptake assay, blocker; assay type: cell-based
NET, sequence (P23975 whole entry): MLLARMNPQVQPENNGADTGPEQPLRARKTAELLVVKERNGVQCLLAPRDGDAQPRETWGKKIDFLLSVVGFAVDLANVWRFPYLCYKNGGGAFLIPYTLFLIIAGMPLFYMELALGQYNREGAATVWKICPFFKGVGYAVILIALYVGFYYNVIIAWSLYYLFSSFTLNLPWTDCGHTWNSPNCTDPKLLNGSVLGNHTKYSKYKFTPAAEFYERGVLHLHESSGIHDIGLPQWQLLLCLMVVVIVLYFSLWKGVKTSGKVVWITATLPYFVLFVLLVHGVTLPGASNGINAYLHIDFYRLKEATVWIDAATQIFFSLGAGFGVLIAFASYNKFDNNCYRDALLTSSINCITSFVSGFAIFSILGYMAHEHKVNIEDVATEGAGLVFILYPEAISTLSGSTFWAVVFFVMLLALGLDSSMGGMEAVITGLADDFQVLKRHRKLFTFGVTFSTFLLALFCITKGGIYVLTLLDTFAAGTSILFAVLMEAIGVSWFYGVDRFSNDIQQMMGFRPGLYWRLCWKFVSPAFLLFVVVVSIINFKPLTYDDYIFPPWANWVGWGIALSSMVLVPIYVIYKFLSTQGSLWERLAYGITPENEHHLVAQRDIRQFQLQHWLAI

Structure (SMILES) | 5-HT1A receptor modulation, +5-HT1A vs −5-HT1A cultures (5-HT1A receptor) | pEC50 (ADRA1A) | pEC50 (ADRA2A) | pEC50 (AVPR1A [1]) | pIC50 (AVPR1A [2]) | pEC50 (DRD1) | pIC50 (HTR1A (5-HT1A)) | pIC50 (OPRD1) | pIC50 (HTR3A (5-HT3A)) | pIC50 (MAO-A) | pIC50 (DAT) | pIC50 (NET)
CN(C)CCc1c[nH]c2cccc(OC(=O)c3ccc(Br)cc3)c12 [C(I)] | mild receptor modulation at higher ligand concentrations | < 4.00 | < 4.00 | < 4.00 | < 4.00 | < 4.00 | < 4.00 | < 4.00 | 5.12 | < 4.00 | 4.37 | 4.33
CN(C)CCc1c[nH]c2cccc(OC(=O)CC3CC3)c12 [C(IV)] | significant receptor modulation | < 4.00 | < 4.00 | < 4.00 | < 4.00 | < 4.00 | < 4.00 | < 4.00 | 4.12 | 4.46 | < 4.00 | < 4.00
COc1ccc(C(=O)Oc2cccc3[nH]cc(CCN(C)C)c23)cc1 [C(V)] | mild receptor modulation at higher ligand concentrations | < 4.00 | < 4.00 | < 4.00 | < 4.00 | < 4.00 | < 4.00 | < 4.00 | 4.47 | 4.12 | < 4.00 | < 4.00
CN(C)CCc1c[nH]c2cccc(OC(=O)c3c(F)c(F)c(F)c(F)c3F)c12 [C(VI)] | no receptor modulation at higher ligand concentrations | 4.46 | 4.19 | < 4.00 | < 4.00 | < 4.00 | < 4.00 | < 4.00 | 4.26 | 4.68 | < 4.00 | < 4.00
CN(C)CCc1c[nH]c2cccc(OC(=O)c3cccc4c3OCCO4)c12 [C(XX)] | significant receptor modulation | < 4.00 | < 4.00 | < 4.00 | < 4.00 | < 4.00 | < 4.00 | < 4.00 | 5.42 | < 4.00 | < 4.00 | 4.82
